Assay results published in PubChem BioAssay AID1963853 (Molecular Pharmacology Branch, DTP, NCI, 2024).
“And” between values parts separate entries of the source, which are not always exact repeats. Equal entries are not always repeated.

Test system: 266295-075-R-J1-PDC spheroid viability
Assay: Anticancer human tumor 266295-075-R-J1-PDC patient-derived head and neck squamous carcinoma cell line growth inhibition [POLQ]
Conditions: spheroids with HUVEC and MSC; for viability, T/C: stronger effect = lower value
Procedure: Multicellular complex tumor spheroid response to Polymerase (POL) inhibitors (novobiocin, ART-558, RP6685) in combination with a variety of drugs and investigational agents in selected tumor cell lines
The POL inhibitors (novobiocin, ART-558, and RP6685) were evaluated both individually and in combination with standard of care and investigational anticancer small molecules within a complex spheroid model of solid tumors. . Complex spheroids include a stromal component modeled by human endothelial cells (HUVEC) and fibroblasts modeled by human mesenchymal stem cells (MSCs). The concentration ranges selected for each drug and investigational agent were based upon clinically achievable concentrations if the clinical Cmax of the agent was known.
Compounds. The drugs and investigational agents: novobiocin (NSC847541), ART-558 (NSC835418), RP-6685 (NSC848927), peposertib (NSC802822), ceralasertib (NSC780249), elimusertib (NSC800525), camonsertib (NSC841442), AZD-1390 (NSC803789), olaparib (NSC753686), talazoparib (NSC767125), rucaparib (NSC756644), sotorasib (NSC818433), MRTX-1133 (NSC836407), SN-38 (NSC673596), topotecan (NSC609699), epotoside (NSC141540), doxorubicin (NSC123127), gemcitabine (NSC613327), 5-fluorouracil (NSC19893), paclitaxel (NSC125973), vemurafenib (NSC761431), MSA-2 (NSC828583), SN-011 (NSC837082), adavosertib (NSC754352), prexasertib (NSC758257), carboplatin (NSC241240) and oxaliplatin (NSC266046), were obtained from the National Cancer Institute (NCI) Developmental Therapeutics Program Chemical Repository (21). The FDA-approved anticancer drug set is available from the Developmental Therapeutics Program at https://dtp.cancer.gov/organization/dscb/obtaining/. […] The stock solutions were prepared in dimethyl sulfoxide (DMSO, Sigma-Aldrich, St. Louis, MO, cat. D2650), except for the platinum compounds which were prepared in saline (Quality Biological, Gaithersburg, MD, cat. 114-055-101), at 800-fold the tested concentration and stored at -70 degrees C prior to their use. All drugs and investigational agents were tested over a range starting from a high concentration at or near the clinical Cmax and decreasing in half-log increments. If the clinical Cmax for an agent had not been determined, the highest concentration tested was 10 microM, except for SN-38, which was tested at a high concentration of 1 microM.
Cell Culture. All cells were maintained in an incubator at 37 degrees C and 5% CO2 with 95% humidity. The PDC lines were cultured according to standard operating procedures established by the NCI PDMR (https://pdmr.cancer.gov). Table 3 of the manuscript, lists the cell lines along with the number of the three cell types plated to form the mct-spheroids and media for tumor cell growth. After thawing, all PDC lines, except 997537-175-T-J1-PDC and 415267-285-R-J2-PDC, were cultured in Matrigel-coated flasks prepared with a working solution of 1X Ham's F-12 nutrient mix, without supplementation (Thermo Fisher Scientific, cat. 11765054), 100 U/mL penicillin-streptomycin (Thermo Fisher Scientific, cat. 15140122), and 2.5% Matrigel (Corning Inc., Corning, NY, cat. 354248) for the first three passages. The two PDC lines 997537-175-T-J1-PDC and 415267-285-R-J2-PDC were cultured on uncoated flasks. The 857933-349-R-J2-PDC line was cultured in 6C/Colon 1B media containing advanced DMEM/F-12 (Thermo Fisher Scientific, cat. 12634028), 10 mM HEPES (Thermo Fisher Scientific, cat. 15630080), 1X GlutaMAX supplement (Thermo Fisher Scientific, cat. 35050061), 0.1 mg/mL primocin (InvivoGen, San Diego, CA, cat. ant-pm-2), 10% defined fetal bovine serum, heat inactivated (HyClone Laboratories Inc., Logan, UT, cat. SH30070.03HI), 50% L-WRN conditioned media (ATCC, cat. CRL-3276), 1.25 mM N-Acetyl-L-cysteine (Sigma-Aldrich, cat. A9165), 10 mM nicotinamide (Sigma-Aldrich, cat. N0636), 1X B-27 supplement (Thermo Fisher Scientific, cat. 17504044), 1X N-2 supplement (Thermo Fisher Scientific, cat. […]

[1] = curve of first compound, second compound 0.0316 µM
[2] = curve of first compound, second compound 0.1 µM
[3] = curve of first compound, second compound 0.316 µM
[4] = curve of first compound, second compound 1 µM
[5] = curve of first compound, second compound 3.16 µM
[6] = curve of first compound, second compound 10 µM
[7] = second compound 0.0316 µM, first compound 0.0316 µM
[8] = second compound 0.0316 µM, first compound 0.1 µM
[9] = second compound 0.0316 µM, first compound 0.316 µM
[10] = second compound 0.0316 µM, first compound 1 µM
[11] = second compound 0.0316 µM, first compound 3.16 µM
[12] = second compound 0.0316 µM, first compound 10 µM
[13] = second compound 0.1 µM, first compound 0.0316 µM
[14] = second compound 0.1 µM, first compound 0.1 µM
[15] = second compound 0.1 µM, first compound 0.316 µM
[16] = second compound 0.1 µM, first compound 1 µM
[17] = second compound 0.1 µM, first compound 3.16 µM
[18] = second compound 0.1 µM, first compound 10 µM
[19] = second compound 0.316 µM, first compound 0.0316 µM
[20] = second compound 0.316 µM, first compound 0.1 µM
[21] = second compound 0.316 µM, first compound 0.316 µM
[22] = second compound 0.316 µM, first compound 1 µM
[23] = second compound 0.316 µM, first compound 3.16 µM
[24] = second compound 0.316 µM, first compound 10 µM
[25] = second compound 1 µM, first compound 0.0316 µM
[26] = second compound 1 µM, first compound 0.1 µM
[27] = second compound 1 µM, first compound 0.316 µM
[28] = second compound 1 µM, first compound 1 µM
[29] = second compound 1 µM, first compound 3.16 µM
[30] = second compound 1 µM, first compound 10 µM
[31] = second compound 3.16 µM, first compound 0.0316 µM
[32] = second compound 3.16 µM, first compound 0.1 µM
[33] = second compound 3.16 µM, first compound 0.316 µM
[34] = second compound 3.16 µM, first compound 1 µM
[35] = second compound 3.16 µM, first compound 3.16 µM
[36] = second compound 3.16 µM, first compound 10 µM
[37] = second compound 10 µM, first compound 0.0316 µM
[38] = second compound 10 µM, first compound 0.1 µM
[39] = second compound 10 µM, first compound 0.316 µM
[40] = second compound 10 µM, first compound 1 µM
[41] = second compound 10 µM, first compound 3.16 µM
[42] = second compound 10 µM, first compound 10 µM
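Further: spheroids exposed to compounds for seven days before readout.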

## C#Cc1c(F)ccc2cc(O)cc(-c3ncc4c(N5CC6CCC(C5)N6)nc(OCC56CCCN5CC(F)C6)nc4c3F)c12 (stereo not drawn) + Cc1cccc(N(C)C(=O)C2C(O)CCN2c2nc(C)cc(C(F)(F)F)c2C#N)c1
[1]
  IC50: > 10 µM
[2]
  IC50: > 10 µM
[3]
  IC50: > 10 µM
[4]
  IC50: > 10 µM
[5]
  IC50: 6.48 µM
[6]
  IC50: > 10 µM
[7]
  viability, T/C: 91.9%
[8]
  viability, T/C: 76.7%
[9]
  viability, T/C: 82.8%
[10]
  viability, T/C: 66.8%
[11]
  viability, T/C: 66.7%
[12]
  viability, T/C: 57%
[13]
  viability, T/C: 111%
[14]
  viability, T/C: 94.1%
[15]
  viability, T/C: 70%
[16]
  viability, T/C: 62.8%
[17]
  viability, T/C: 59.6%
[18]
  viability, T/C: 55.7%
[19]
  viability, T/C: 102%
[20]
  viability, T/C: 87.4%
[21]
  viability, T/C: 78.6%
[22]
  viability, T/C: 70.6%
[23]
  viability, T/C: 70.9%
[24]
  viability, T/C: 58.8%
[25]
  viability, T/C: 90.3%
[26]
  viability, T/C: 93.1%
[27]
  viability, T/C: 75.5%
[28]
  viability, T/C: 67.3%
[29]
  viability, T/C: 67.8%
[30]
  viability, T/C: 57.8%
[31]
  viability, T/C: 154%
[32]
  viability, T/C: 83.7%
[33]
  viability, T/C: 76.9%
[34]
  viability, T/C: 65.1%
[35]
  viability, T/C: 66.6%
[36]
  viability, T/C: 55.6%
[37]
  viability, T/C: 84.5%
[38]
  viability, T/C: 91.9%
[39]
  viability, T/C: 82.9%
[40]
  viability, T/C: 63.2%
[41]
  viability, T/C: 65.7%
[42]
  viability, T/C: 85%

## CCc1cc2c(N3CCc4c(cc(Cn5ccnc5)cc4-c4cn(C)nc4C(F)(F)F)C3=O)cc(C)nc2c(OC)n1 + COC1C(OC(N)=O)C(O)C(Oc2ccc3c(O)c(NC(=O)c4ccc(O)c(CC=C(C)C)c4)c(=O)oc3c2C)OC1(C)C
[1]
  IC50: > 10 µM
[2]
  IC50: > 10 µM
[3]
  IC50: > 10 µM
[4]
  IC50: > 10 µM
[5]
  IC50: > 10 µM
[6]
  IC50: > 10 µM
[7]
  viability, T/C: 112%
[8]
  viability, T/C: 101%
[9]
  viability, T/C: 114%
[10]
  viability, T/C: 108%
[11]
  viability, T/C: 134%
[12]
  viability, T/C: 148%
[13]
  viability, T/C: 105%
[14]
  viability, T/C: 102%
[15]
  viability, T/C: 93.8%
[16]
  viability, T/C: 121%
[17]
  viability, T/C: 134%
[18]
  viability, T/C: 157%
[19]
  viability, T/C: 85.9%
[20]
  viability, T/C: 94.2%
[21]
  viability, T/C: 118%
[22]
  viability, T/C: 107%
[23]
  viability, T/C: 125%
[24]
  viability, T/C: 163%
[25]
  viability, T/C: 75.3%
[26]
  viability, T/C: 92.8%
[27]
  viability, T/C: 102%
[28]
  viability, T/C: 115%
[29]
  viability, T/C: 145%
[30]
  viability, T/C: 128%
[31]
  viability, T/C: 106%
[32]
  viability, T/C: 95.7%
[33]
  viability, T/C: 108%
[34]
  viability, T/C: 113%
[35]
  viability, T/C: 126%
[36]
  viability, T/C: 147%
[37]
  viability, T/C: 98.6%
[38]
  viability, T/C: 83.8%
[39]
  viability, T/C: 82.7%
[40]
  viability, T/C: 120%
[41]
  viability, T/C: 119%
[42]
  viability, T/C: 154%

## CC[C@@]1(O)C(=O)OCc2c1cc1n(c2=O)Cc2cc3c(CN(C)C)c(O)ccc3nc2-1
Compound 0.000316 µM
  viability, T/C: 80.3% and 92.4% and 96.2%
Compound 0.001 µM
  viability, T/C: 96.8% and 98.5% and 96.1%
Compound 0.00316 µM
  viability, T/C: 80.3% and 78.6% and 92.5%
Compound 0.01 µM
  viability, T/C: 80.8% and 95.8% and 96.8%
Compound 0.0316 µM
  viability, T/C: 89.2% and 93.9% and 103%
Compound 0.1 µM
  viability, T/C: 82.4% and 82.3% and 87.1%
Curve of compound
  IC50: > 0.1 µM

## O=C(Nc1ccc(O)c(NS(=O)(=O)c2ccc(F)cc2)c1)c1ccc(-c2ccccc2)cc1
Compound 0.0316 µM
  viability, T/C: 119% and 92.8% and 88.2%
Compound 0.1 µM
  viability, T/C: 112% and 97.5% and 96.2%
Compound 0.316 µM
  viability, T/C: 102% and 96.6% and 99.1%
Compound 1 µM
  viability, T/C: 123% and 103% and 118%
Compound 3.16 µM
  viability, T/C: 153% and 112% and 122%
Compound 10 µM
  viability, T/C: 114% and 96.1% and 113%
Curve of compound
  IC50: > 10 µM
